The values that follow are results of earlier work, collected in patent US20050159471A1, “Compositions of a benzenesulfonamide or methylsulfonylbenzene cyclooxygenase-2 selective inhibitor and a cholinergic agent for the treatment of reduced blood flow or trauma to the central nervous system” (Pharmacia Corporation, priority 2003, published 2005).

For this data set the following is noted: administered to subjects following stroke.

With citicoline, the behavioral parameters entry is “improvement in behavioral parameters” and the infarction volume result is on record as “decrease in infarction volume”.
